From the supplement of paper PMC10307832

Experiments:
Test in all cases: relative viability (nuclei count vs DMSO), 5 days (fraction); higher = more cells survive
[1] = compound: O=C(Nc1cc(C(F)(F)F)cc(C(F)(F)F)c1)c1cc(Cl)ccc1O [IMD-0354] + CS(=O)(=O)CCNCc1ccc(-c2ccc3ncnc(Nc4ccc(OCc5cccc(F)c5)c(Cl)c4)c3c2)o1 [Lapatinib] (partner 2 µM)
Method in brief: (§1)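 For relative viability, nuclei counts in treated wells were divided by those in vehicle wells. Lung cancer cell lines had been pin-tool dosed in 1536-well plates the day after seeding and cultured for 5 days, then fixed and stained in one step (final 0.05% Triton X-100, 1% formaldehyde, 1 ug/ml Hoechst) and imaged at 4×. Doses were one drug alone or a fixed anchor-drug dose plus five library-drug doses (not always all listed) in √10 steps, and values are duplicate-plate medians.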

[2] = compound: Cc1cnc(CNC(=O)c2c(=O)c3ccc(N4CCCN(C)CC4)nc3n3c2sc2ccccc23)cn1 [CX-5461] + O=C(CCCCCCC(=O)Nc1ccccc1)NO [Vorinostat] (partner 1 µM)
Method in brief: as §1

[3] = compound: Cc1cnc(CNC(=O)c2c(=O)c3ccc(N4CCCN(C)CC4)nc3n3c2sc2ccccc23)cn1 [CX-5461] + Nc1ncn([C@H]2C[C@H](O)[C@@H](CO)O2)c(=O)n1 [Decitabine] (partner 2 µM)
Method in brief: as §1

[4] = compound: O=C(Nc1cc(C(F)(F)F)cc(C(F)(F)F)c1)c1cc(Cl)ccc1O [IMD-0354] + Cc1nc(NC(=O)N2CCC[C@H]2C(N)=O)sc1-c1ccnc(C(C)(C)C(F)(F)F)c1 [Alpelisib] (partner 2 µM)
Method in brief: as §1

Row | Cell Line | relative viability ([1]; first compound 0.04 µM) | relative viability ([1]; first compound 0.1265 µM) | relative viability ([1]; first compound 0.4 µM) | relative viability ([1]; first compound 1.265 µM) | relative viability ([1]; first compound 4 µM) | relative viability ([2]; first compound 0.01 µM) | relative viability ([2]; first compound 0.03162 µM) | relative viability ([2]; first compound 0.1 µM) | relative viability ([2]; first compound 0.3162 µM) | relative viability ([2]; first compound 1 µM) | relative viability ([3]; first compound 0.01 µM) | relative viability ([3]; first compound 0.03162 µM) | relative viability ([3]; first compound 0.1 µM) | relative viability ([3]; first compound 0.3162 µM) | relative viability ([3]; first compound 1 µM) | relative viability ([4]; first compound 0.04 µM) | relative viability ([4]; first compound 0.1265 µM) | relative viability ([4]; first compound 0.4 µM) | relative viability ([4]; first compound 1.265 µM) | relative viability ([4]; first compound 4 µM)
1 | HCC-366 | 0.91 | 1.41 | 0.118 | 0.0814 | 0.0302 | 0.441 | 0.408 | 0.166 | 0.242 | 0.0455 | 0.37 | 0.349 | 0.293 | 0.347 | 0.327 | 0.509 | 0.727 | 0.148 | 0.373 | 0.0309
2 | HCC-827 | 0.195 | 0.187 | 0.186 | 0.168 | 0.145 | 0.854 | 0.887 | 0.85 | 0.567 | 0.923 | 0.339 | 0.337 | 0.342 | 0.282 | 0.3 | 0.888 | 0.978 | 0.752 | 0.574 | 0.216
3 | HOP-62 | 0.974 | 1.13 | 0.603 | 0.662 | 0.0827 | 0.542 | 0.856 | 0.655 | 0.271 | 0.405 | 0.243 | 0.23 | 0.171 | 0.191 | 0.207 | 0.839 | 1.2 | 0.896 | 0.837 | 0.178
4 | IA-LM | 0.628 | 0.743 | 0.412 | 0.285 | 0.235 | 1 | 0.925 | 1.11 | 0.828 | 1.01 |  |  |  |  |  | 0.806 | 0.617 | 0.634 | 0.106 | 0.178
5 | LC-2-ad | 0.947 | 0.924 | 0.354 | 0.192 | 0.116 | 0.732 | 0.768 | 0.716 | 0.659 | 0.491 | 0.805 | 0.867 | 0.809 | 0.795 | 0.79 | 0.979 | 0.835 | 0.397 | 0.106 | 0.115
6 | LCLC-97TM1 |  | 0.792 | 0.419 | 0.27 | 0.144 | 0.917 | 0.965 | 0.769 | 0.102 | 0.661 | 0.225 | 0.233 | 0.238 | 0.208 | 0.229 |  | 0.272 | 0.245 | 0.207 | 0.113
7 | LCLC-103H |  |  |  |  |  | 0.784 | 0.855 | 0.827 | 0.517 | 0.741 | 0.684 | 0.743 | 0.705 | 0.766 | 0.707 | 0.952 | 0.998 | 0.839 | 0.815 | 0.397
8 | LK-2 | 1.14 | 0.9 | 0.545 | 0.844 | 0.288 | 0.422 | 0.315 | 0.367 | 0.2 | 0.307 | 0.329 | 0.278 | 0.302 | 0.162 | 0.279 | 1.77 | 0.711 | 0.647 | 0.611 | 0.372
9 | LOU-NH91 | 0.85 | 0.804 | 0.337 | 0.226 | 0.222 | 0.985 | 0.957 | 0.87 | 0.49 | 0.697 | 0.844 | 0.866 | 0.79 | 0.613 | 0.783 | 0.755 | 0.729 | 0.541 | 0.244 | 0.231
10 | LU99A | 0.708 | 0.952 | 0.604 | 0.247 | 0.165 | 0.529 | 0.544 | 0.377 | 0.323 | 0.215 | 0.925 | 0.958 | 0.923 | 0.594 | 0.79 | 0.517 | 0.493 | 0.345 | 0.247 | 0.195
11 | NCI-H441 |  |  |  |  |  | 0.538 | 0.984 | 0.707 | 0.618 | 0.556 | 0.234 | 0.206 | 0.214 | 0.275 | 0.191 |  | 0.78 | 0.398 | 0.285 | 0.217
12 | NCI-H522 |  |  |  |  |  | 1 | 1.1 | 0.955 |  | 0.852 | 0.763 | 0.641 | 0.671 |  | 0.678 |  |  |  |  | 
13 | NCI-H1299 | 0.844 | 0.964 | 0.462 | 0.221 | 0.185 |  |  |  |  |  |  |  |  |  |  | 1.01 | 1.02 | 0.709 | 0.276 | 0.194
14 | NCI-H1563 | 1.18 | 1.01 | 0.903 | 0.44 | 0.415 |  |  |  |  |  |  |  |  |  |  | 0.875 | 0.889 | 0.886 | 0.726 | 0.399
15 | NCI-H1648 |  |  |  |  |  | 0.526 | 0.355 | 0.49 | 0.495 | 0.483 | 0.493 | 0.508 | 0.488 | 0.44 | 0.474 |  |  |  |  | 
16 | NCI-H1650 | 0.864 | 0.757 | 0.481 | 0.211 | 0.184 | 0.619 | 0.466 | 0.33 | 0.61 | 0.261 | 0.395 | 0.441 | 0.344 | 0.378 | 0.207 |  |  |  |  | 
17 | NCI-H1703 | 0.936 | 1.03 | 0.475 | 0.202 | 0.21 |  |  |  |  |  |  |  |  |  |  | 0.312 | 0.269 | 0.282 | 0.179 | 0.121
18 | NCI-H1792 | 0.827 | 0.967 | 0.833 | 0.479 | 0.299 |  |  |  |  |  | 0.664 | 0.67 | 0.646 | 0.542 | 0.534 | 0.822 | 0.506 | 0.874 | 0.677 | 0.336
19 | NCI-H2228 | 1.23 | 1 | 0.632 | 0.306 | 0.241 | 0.516 | 0.66 | 0.54 | 0.793 | 0.114 |  |  |  |  |  | 0.686 | 0.738 | 0.631 | 0.263 | 0.182
20 | NCI-H2342 |  |  |  |  |  | 0.686 | 0.768 | 0.642 | 0.619 | 0.776 | 0.686 | 0.699 | 0.734 | 0.691 | 0.586 |  |  |  |  | 
21 | SW 900 |  |  |  |  |  | 0.446 | 0.586 |  | 0.637 | 0.359 | 0.631 | 0.448 |  | 0.457 | 0.387 |  |  |  |  | 
